How the values were obtained:
Assay in all cases: relative viability (nuclei count vs DMSO), 5 days (fraction); higher = more cells survive
NCI-H1755 = system: NCI-H1755
Outline: (§1)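 Relative viability was taken as the ratio of nuclei in treated wells to nuclei in vehicle wells. Lung cancer cell lines in 1536-well plates received compounds by pin tool one day after seeding, either one drug alone or a fixed anchor-drug dose plus five library-drug doses (not always all listed) in √10 steps. Nuclei were counted on 4× images after 5 days of treatment, and values are medians of duplicate plates.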

NCI-H522 = system: NCI-H522
Outline: as §1

NCI-H2170 = system: NCI-H2170
Outline: as §1

PC-14 = system: PC-14
Outline: as §1

HOP-62 = system: HOP-62
Outline: as §1

COR-L 105 = system: COR-L 105
Outline: as §1

NCI-H1734 = system: NCI-H1734
Outline: as §1

NCI-H1395 = system: NCI-H1395
Outline: as §1

SK-MES-1 = system: SK-MES-1
Outline: as §1

NCI-H2342 = system: NCI-H2342
Outline: as §1

UMC-11 = system: UMC-11
Outline: as §1

NCI-H647 = system: NCI-H647
Outline: as §1

NCI-H2347 = system: NCI-H2347
Outline: as §1

NCI-H1793 = system: NCI-H1793
Outline: as §1

NCI-H1355 = system: NCI-H1355
Outline: as §1

NCI-H2228 = system: NCI-H2228
Outline: as §1

HARA = system: HARA
Outline: as §1

NCI-H2009 = system: NCI-H2009
Outline: as §1

NCI-H358 = system: NCI-H358
Outline: as §1

NCI-H838 = system: NCI-H838
Outline: as §1

COR-L23 = system: COR-L23
Outline: as §1

NCI-H322M = system: NCI-H322M
Outline: as §1

EKVX = system: EKVX
Outline: as §1

NCI-H1993 = system: NCI-H1993
Outline: as §1

COc1cc(N2CCC(C(N)=O)CC2)ccc1Nc1nc(N)c(Cl)c(Nc2ccccc2S(=O)(=O)C(C)C)n1 [HG-5-88-01] + CC(=O)c1c(C)c2cnc(Nc3ccc(N4CCNCC4)cn3)nc2n(C2CCCC2)c1=O [Palbociclib] (partner 0.5 µM)
relative viability (NCI-H1755; first compound 0.04 µM): 0.42 | relative viability (NCI-H1755; first compound 0.1265 µM): 0.494 | relative viability (NCI-H1755; first compound 0.4 µM): 0.485 | relative viability (NCI-H1755; first compound 1.265 µM): 0.419 | relative viability (NCI-H1755; first compound 4 µM): 0.455 | relative viability (NCI-H522; first compound 0.04 µM): 1.06 | relative viability (NCI-H522; first compound 0.1265 µM): 1.03 | relative viability (NCI-H522; first compound 0.4 µM): 1.01 | relative viability (NCI-H522; first compound 1.265 µM): 0.829 | relative viability (NCI-H522; first compound 4 µM): 0.851 | relative viability (NCI-H2170; first compound 0.04 µM): 0.366 | relative viability (NCI-H2170; first compound 0.1265 µM): 0.386 | relative viability (NCI-H2170; first compound 0.4 µM): 0.407 | relative viability (NCI-H2170; first compound 1.265 µM): 0.361 | relative viability (NCI-H2170; first compound 4 µM): 0.457 | relative viability (PC-14; first compound 0.04 µM): 0.545 | relative viability (PC-14; first compound 0.1265 µM): 0.611 | relative viability (PC-14; first compound 0.4 µM): 0.464 | relative viability (PC-14; first compound 1.265 µM): 0.221 | relative viability (PC-14; first compound 4 µM): 0.0845 | relative viability (HOP-62; first compound 0.04 µM): 0.428 | relative viability (HOP-62; first compound 0.1265 µM): 0.54 | relative viability (HOP-62; first compound 0.4 µM): 0.456 | relative viability (HOP-62; first compound 1.265 µM): 0.501 | relative viability (HOP-62; first compound 4 µM): 0.608 | relative viability (COR-L 105; first compound 0.04 µM): 0.398 | relative viability (COR-L 105; first compound 0.1265 µM): 0.419 | relative viability (COR-L 105; first compound 0.4 µM): 0.459 | relative viability (COR-L 105; first compound 1.265 µM): 0.403 | relative viability (COR-L 105; first compound 4 µM): 0.394 | relative viability (NCI-H1734; first compound 0.04 µM): 0.367 | relative viability (NCI-H1734; first compound 0.1265 µM): 0.301 | relative viability (NCI-H1734; first compound 0.4 µM): 0.326 | relative viability (NCI-H1734; first compound 1.265 µM): 0.33 | relative viability (NCI-H1734; first compound 4 µM): 0.312 | relative viability (NCI-H1395; first compound 0.04 µM): 0.593 | relative viability (NCI-H1395; first compound 0.1265 µM): 0.754 | relative viability (NCI-H1395; first compound 0.4 µM): 0.613 | relative viability (NCI-H1395; first compound 1.265 µM): 0.474 | relative viability (NCI-H1395; first compound 4 µM): 0.664 | relative viability (SK-MES-1; first compound 0.04 µM): 0.319 | relative viability (SK-MES-1; first compound 0.1265 µM): 0.273 | relative viability (SK-MES-1; first compound 0.4 µM): 0.27 | relative viability (SK-MES-1; first compound 1.265 µM): 0.304 | relative viability (SK-MES-1; first compound 4 µM): 0.247 | relative viability (NCI-H2342; first compound 0.04 µM): 0.557 | relative viability (NCI-H2342; first compound 0.1265 µM): 0.54 | relative viability (NCI-H2342; first compound 0.4 µM): 0.471 | relative viability (NCI-H2342; first compound 4 µM): 0.539 | relative viability (UMC-11; first compound 0.04 µM): 0.321 | relative viability (UMC-11; first compound 0.1265 µM): 0.369 | relative viability (UMC-11; first compound 0.4 µM): 0.297 | relative viability (UMC-11; first compound 1.265 µM): 0.348 | relative viability (UMC-11; first compound 4 µM): 0.308 | relative viability (NCI-H647; first compound 0.04 µM): 0.388 | relative viability (NCI-H647; first compound 0.1265 µM): 0.423 | relative viability (NCI-H647; first compound 1.265 µM): 0.444 | relative viability (NCI-H647; first compound 4 µM): 0.494 | relative viability (NCI-H2347; first compound 0.04 µM): 0.439 | relative viability (NCI-H2347; first compound 0.1265 µM): 0.417 | relative viability (NCI-H2347; first compound 0.4 µM): 0.467 | relative viability (NCI-H2347; first compound 1.265 µM): 0.431 | relative viability (NCI-H2347; first compound 4 µM): 0.425 | relative viability (NCI-H1793; first compound 0.04 µM): 0.301 | relative viability (NCI-H1793; first compound 0.1265 µM): 0.309 | relative viability (NCI-H1793; first compound 0.4 µM): 0.299 | relative viability (NCI-H1793; first compound 1.265 µM): 0.24 | relative viability (NCI-H1793; first compound 4 µM): 0.33 | relative viability (NCI-H1355; first compound 0.04 µM): 0.4 | relative viability (NCI-H1355; first compound 0.1265 µM): 0.394 | relative viability (NCI-H1355; first compound 0.4 µM): 0.426 | relative viability (NCI-H1355; first compound 1.265 µM): 0.338 | relative viability (NCI-H1355; first compound 4 µM): 0.362 | relative viability (NCI-H2228; first compound 0.04 µM): 0.388 | relative viability (NCI-H2228; first compound 0.1265 µM): 0.388 | relative viability (NCI-H2228; first compound 0.4 µM): 0.319 | relative viability (NCI-H2228; first compound 1.265 µM): 0.247 | relative viability (NCI-H2228; first compound 4 µM): 0.231 | relative viability (HARA; first compound 0.04 µM): 0.234 | relative viability (HARA; first compound 0.1265 µM): 0.177 | relative viability (HARA; first compound 0.4 µM): 0.2 | relative viability (HARA; first compound 1.265 µM): 0.218 | relative viability (HARA; first compound 4 µM): 0.253 | relative viability (NCI-H2009; first compound 0.04 µM): 0.187 | relative viability (NCI-H2009; first compound 0.1265 µM): 0.281 | relative viability (NCI-H2009; first compound 0.4 µM): 0.242 | relative viability (NCI-H2009; first compound 1.265 µM): 0.216 | relative viability (NCI-H2009; first compound 4 µM): 0.224 | relative viability (NCI-H358; first compound 0.04 µM): 0.139 | relative viability (NCI-H358; first compound 0.1265 µM): 0.131 | relative viability (NCI-H358; first compound 0.4 µM): 0.118 | relative viability (NCI-H358; first compound 1.265 µM): 0.0962 | relative viability (NCI-H358; first compound 4 µM): 0.0785 | relative viability (NCI-H838; first compound 0.04 µM): 0.189 | relative viability (NCI-H838; first compound 0.1265 µM): 0.207 | relative viability (NCI-H838; first compound 0.4 µM): 0.173 | relative viability (NCI-H838; first compound 1.265 µM): 0.177 | relative viability (NCI-H838; first compound 4 µM): 0.168 | relative viability (COR-L23; first compound 0.04 µM): 0.383 | relative viability (COR-L23; first compound 0.1265 µM): 0.225 | relative viability (COR-L23; first compound 0.4 µM): 0.266 | relative viability (COR-L23; first compound 1.265 µM): 0.235 | relative viability (COR-L23; first compound 4 µM): 0.26 | relative viability (NCI-H322M; first compound 0.04 µM): 0.532 | relative viability (NCI-H322M; first compound 0.1265 µM): 0.492 | relative viability (NCI-H322M; first compound 0.4 µM): 0.477 | relative viability (NCI-H322M; first compound 1.265 µM): 0.337 | relative viability (NCI-H322M; first compound 4 µM): 0.443 | relative viability (EKVX; first compound 0.04 µM): 0.507 | relative viability (EKVX; first compound 0.1265 µM): 0.425 | relative viability (EKVX; first compound 0.4 µM): 0.389 | relative viability (EKVX; first compound 4 µM): 0.293 | relative viability (NCI-H1993; first compound 0.04 µM): 0.662 | relative viability (NCI-H1993; first compound 0.1265 µM): 0.69 | relative viability (NCI-H1993; first compound 0.4 µM): 0.793 | relative viability (NCI-H1993; first compound 4 µM): 0.564

From the supplement of paper PMC10307832
